13 compounds from patent US9452990B2, “Complement pathway modulators and uses thereof” (NOVARTIS AG, priority 2012, dated 2016) can be followed below.

Each structure is given as a SMILES string. pIC50: −log10 of the molar value. Structures can show the parent of a compound that is named as a salt.

For one assay, the target named is human complement factor B (CVF-Bb complex) (Homo sapiens (Human), UniProt P00751). The assay is described as follows: Human Complement Factor B ELISA Assay. Type of assay: biochemical.
Settings: not given
The procedure: Human Complement Factor B ELISA Assay
CVF-Bb complex prepared from purified cobra venom factor (1 μM), recombinant human complement factor B (expressed in drosophila cells and purified using standard methods) and human complement factor D (expressed in E. Coli, refolded and purified using standard methods). CVF-Bb complex at 3 nM concentration was incubated with test compound at various concentrations for 1 hour at room temperature in PBS pH 7.4 containing 10 mM MgCl2 and 0.05% (w/v) CHAPS. Human complement C3 substrate purified from plasma was added to a final concentration of 1 μM. After 1 hour incubation at room temperature, the enzyme reaction was stopped by addition of a cocktail of concentrated pan-protease inhibitors. The product of the reaction, C3a, was quantified by means of an enzyme-linked-immunosorbent assay. IC50 values were calculated from percentage of inhibition of CVF-Bb activity as a function of test compound concentration.
On the technique in general: ELISA stands for enzyme-linked immunosorbent assay.
In the case of `COc1cc2c(N)nc(N3CCN(C(=O)C[C@@H](N)c4ccoc4)CC3)nc2c(F)c1OC` [Example 35, (R)-3-Amino-1-[4-(4-amino-8-fluoro-6,7-dimethoxy-quinazolin-2-yl)piperazin-1-yl]-3-furan-3-yl-propan-1-one hydrochloride], the pIC50 – broadly, −log10 of the IC50, conventionally taken in molar units – was 6.51.

`COc1cc2c(N)nc(N3CCN(C(=O)C[C@@H](N)CC(C)C)C[C@@H]3C)nc2c(F)c1OC` [Example 56, (S)-3-Amino-1-[(S)-4-(4-amino-8-fluoro-6,7-dimethoxy-quinazolin-2-yl)-3-methyl-piperazin-1-yl]-5-methyl-hexan-1-one hydrochloride] gave a pIC50 of 6.62.

Regarding `CC[C@H]1CN(C(=O)C[C@@H](N)c2ccc(F)cc2)CCN1c1nc(N)c2cc(OC)c(OC)c(F)c2n1` [Example 65, (R)-3-Amino-1-[(S)-4-(4-amino-8-fluoro-6,7-dimethoxy-quinazolin-2-yl)-3-ethyl-piperazin-1-yl]-3-(4-fluoro-phenyl)-propan-1-one hydrochloride], the pIC50 is 7.52.

Staying with this assay, now noted: CVF-Bb complex 3 nM, 1 hour preincubation with compound at room temperature, human C3 substrate 1 μM, C3a quantified by ELISA; read-out: Factor B IC50.
Regarding `COc1cc2nc(N3CCN(C(=O)C[C@@H](N)c4ccc(F)cc4)CC3)nc(N)c2c(F)c1OC` [Example 83, (R)-3-Amino-1-[4-(4-amino-5-fluoro-6,7-dimethoxy-quinazolin-2-yl)-piperazin-1-yl]-3-(4-fluoro-phenyl)-propan-1-one], the pIC50 is 7.52. Turning to `COc1cc2c(N)nc(N3CCN(C(=O)C[C@@H]4CCCN4CC(C)C)CC3)nc2c(F)c1OC` [Example 108, (S)-1-(4-(4-amino-8-fluoro-6,7-dimethoxyquinazolin-2-yl)piperazin-1-yl)-2-(1-isobutylpyrrolidin-2-yl)ethanone], the pIC50 is 6.77. `COCCC1CN(C(=O)/C=C/C2CC2)CCN1c1nc(N)c2cc(OC)c(OC)c(F)c2n1` (stereo not shown) [Example 4, (E)-1-[4-(4-Amino-8-fluoro-6,7-dimethoxy-quinazolin-2-yl)-3-(2-methoxy-ethyl)-piperazin-1-yl]-3-cyclopropyl-propenone]: the pIC50 is 4.78. `COc1cc2c(N)nc(N3CCN(C(=O)C[C@@H]4CC[C@H](c5ccccc5)N4)CC3)nc2c(F)c1OC` [Example 111, 1-[4-(4-Amino-8-fluoro-6,7-dimethoxy-quinazolin-2-yl)-piperazin-1-yl]-2-((2S,5R)-5-phenyl-pyrrolidin-2-yl)-ethanone]: the pIC50 was 6.42. Take `COc1cc2c(N)nc(N3CCN(C(=O)C[C@@H]4CCCN4)C[C@@H]3c3ccccc3)nc2c(F)c1OC` [Example 120, 1-[(S)-4-(4-Amino-8-fluoro-6,7-dimethoxy-quinazolin-2-yl)-3-phenyl-piperazin-1-yl]-2-(S)-pyrrolidin-2-yl-ethanone]: the pIC50 is 7.10. As for `COc1cc2c(N)nc(N3CCN(C(=O)C[C@@H](CN)c4ccccc4)CC3)nc2c(F)c1OC` [Example 129, (R)-4-Amino-1-[4-(4-amino-8-fluoro-6,7-dimethoxy-quinazolin-2-yl)-piperazin-1-yl]-3-phenyl-butan-1-one], the pIC50 is 6.15. For the compound `COc1cc2c(N)nc(N3CCN(C(=O)C[C@H](c4ccc(F)cc4)N4CCCCC4)CC3)nc2c(F)c1OC` [Example 99, (R)-1-[4-(4-Amino-8-fluoro-6,7-dimethoxy-quinazolin-2-yl)-piperazin-1-yl]-3-(4-fluoro-phenyl)-3-piperidin-1-yl-propan-1-one], the pIC50 was 8.22. With `COc1cc2c(N)nc(N3CCN(C(=O)C[C@@H](N)C4CCCC4)CC3)nc2c(F)c1OC` [Example 32, (R)-3-Amino-1-[4-(4-amino-8-fluoro-6,7-dimethoxy-quinazolin-2-yl)-piperazin-1-yl]-3-cyclopentyl-propan-1-one], the pIC50 is 7.00. On to `COc1cc2c(N)nc(N3CCN(C(=O)C[C@@H](NCCF)c4ccc(F)cc4)CC3)nc2c(F)c1OC` [Example 98], for which the pIC50 is 8.22.

Consider `COc1cc2c(N)nc(N3CCN(C(=O)CC4CNCCO4)C[C@@H]3c3ccccc3)nc2c(F)c1OC` (stereo partly drawn) [Example 123, 1-[(S)-4-(4-Amino-8-fluoro-6,7-dimethoxy-quinazolin-2-yl)-3-phenyl-piperazin-1-yl]-2-morpholin-2-yl-ethanone], for which the pIC50 is 6.05.
